Measured values reported in patent publication US12616750B2, “Combination therapy utilizing DNA alkylating agents and ATR inhibitors” (Merck Patent GmbH, priority 2018, dated 2026).

What was measured:
[1] = Xenograft experiment, tolerability (body weight); design: species or system H2d Rag2 mice; conditions: mouse, in vivo
Method: The tolerability of the anti-cancer treatment was assessed considering the overall condition of the animal as well as body-weight changes of the mice (FIG. 22).

NCI-N87 xenografts = assay: Xenograft experiment, therapeutic efficacy; conditions: single agent: αHER2-6 1.0 mg/kg i.v. single dose; ATRi 50 mg/kg per oral once daily 14 d
Method: Female H2d Rag2 mice, 6-8 weeks old, were obtained from Taconic Biosciences, LLC. A xenograft was established by harvesting NCI-N87 cells from cell culture, mixing the cells 1:1 with Matrigel and injecting 2.5×10^6 cells subcutaneously into the flank of the mice. The tumor volume was assessed twice weekly by length measurements in two dimensions using calipers. The volume was calculated following eq. 3 where the length L is the longest tumor length and W is the shortest tumor length.
After an initial tumor growth phase, mice were randomized and assigned to treatment groups comprising 10 animals. The initial tumor volume amounted to approximately 100 mm^3 when treatment started. Vehicle treated mice obtained a solution of 0.5% Methocel, 0.25% Tween-20 in water. […] Mice were weighted twice weekly to assess the body-weight during the treatment period. The criteria to terminate the study for single animals were skin ulcerations, tumor length exceeding 15 mm or tumor exceeding 10% of the body weight. In addition, body weight loss was a criterium for termination if body weight loss exceeded 20% accompanied with a haggard appearance, body weight loss exceeded 20% on three successive days or if body weight loss exceeded 25% of the adjusted body weight.

MDA-MB-453 cells [2] = assay: Dose-matrix combination assay (synergy score, Loewe model); format: cell-based; conditions: MDA-MB-453
Method: (§1) Dose-matrix combination assays were performed as described above, but performed in opague 384-well plates (2k viable cells/well). Compounds were added using Tecan D300e liquid. Protein solutions were supplemented with 0.3% Tween-20 (final) and diluted to 1 μM. All wells were normalized to the maximum amount of DMSO (maximum 0.4%) or Tween-20 added. Read out of luminescence was performed on Envision 2104 Multilabel Reader (Perkin Elmer) and data were evaluated using Genedata Screener® version 14.0.6-Standard (Genedata AG). Luminescence values were normalized to luminescence of non-treated cells and dose-response was fitted using Smart Fit. Synergy scores were calculated using LOEWE synergy model.
(§2) The screening of synergistic drug combinations can be accomplished by performing a dose-matrix assay. Therefore, two drugs are serial diluted and mixed at every dose level, yielding a dose-matrix. The drug combination can be additive if the effects of the combination are identical to the added effects of the single agents. However, the effects of the combination might also be stronger than the activity of the single agents. This scenario is termed synergy, whereas weaker combination effects compared to the single agents are termed antagonism. A dose-matrix assay is depicted schematically in FIG. 2 which illustrates the outcomes of a dose-matrix assay: additivity, antagonism and synergy.

NCI-N87 cells = assay: as above; format: cell-based; conditions: NCI-N87
Method: as §1, §2

HCC-1954 cells [3] = assay: as above; format: cell-based; conditions: combination with DUBA
MDA-MB-468 cells [4] = assay: as above; format: cell-based; conditions: combination with DUBA; MDA-MB-468, 6 d; S ± SD; cutoff ±1
HCC-1954 cells [5] = assay: MNED curve-shift assay; format: cell-based; conditions: HCC-1954
Text: (§3) Therefore a curve-shift assay system was established. In a first step, a dose-response curve (DRC) is obtained by treating a certain cell line with an inhibitor. The maximum non-efficacious dose (MNED) can be derived from this DRC. MNED is the highest dose, that can be added to a certain cell line without affecting the viability. The activity of the ADC is confirmed in a separate experiment. Finally, a combination experiment can be conducted. Therefore, the ADC and ADC plus inhibitor at MNED are added to the cells. The inhibitor is tested in parallel at MNED as a control. Due to the application of inhibitor at MNED, no reduction in cell viability caused by the inhibitor is expected. Three outcomes are possible: 1) The combination of ADC plus inhibitor is equipotent as the ADC only. […] Such a result would be interpreted as depotentiation. […] In this case, the potency of the ADC is potentiated.
(§4) Potentiation effects are expressed as dose-reduction indices (DRI), which can be calculated by dividing the IC50-value of ADC by the IC50-value of ADC plus inhibitor according to eq. 1
(§5) Curve-shift assays were conducted as follows: The cell number and viability was determined using ViCell™-XR (Beckman Coulter) and seeded in opague 96-well plate (10k viable cells/well). After seeding, the plate was incubated (37° C., 5% C02) in a humid chamber overnight. Compounds were diluted in the appropriate medium, added to the cells and the plate was incubated (37° C., 5% CO2, 6 d) in a humid chamber. After 30 min equilibration at room temperature, CellTiter-Glo reagent (Promega) was added. After the plate was shaken (3 min, 550 rpm, rt) it was incubated (10 min, rt) and luminescence was read on a synergy 4 plate reader (BioTek). Evaluation was performed using GraphPad Prism version 6.05. Therefor luminescence values were normalized to luminescence values of non-treated cells and dose-response was fitted with 4-point logistic fit.
(§6) The determination of dose-reduction indices (DRI) in a maximum non-efficacious dose (MNED) curve-shift assay is a 3-step process as depicted exemplarily in FIG. 13. The cytotoxicity of the ADC is confirmed in a cell viability assay in an initial step. […] In the second step. the MNED of the ATRi was determined. […] In order to obtain a full […] for the combination, the starting concentration of the ADC was lowered compared to the experiment in step 1.

MDA-MB-468 cells [6] = assay: MNED curve-shift assay; format: cell-based
Text: as §3, §4, §5, §6

Calu-3 cells = assay: MNED curve-shift assay; format: cell-based
Text: as §3, §4, §5, §6

MDA-MB-453 cells [7] = assay: MNED curve-shift assay; format: cell-based
Text: as §3, §4, §5, §6

BT-474 cells = assay: MNED curve-shift assay; format: cell-based
Text: as §3, §4, §5, §6

JIMT-1 cells = assay: MNED curve-shift assay; format: cell-based
Text: as §3, §4, §5, §6

SK-OV-3 cells = assay: MNED curve-shift assay; format: cell-based
Text: as §3, §4, §5, §6

SK-BR-3 cells = assay: MNED curve-shift assay; format: cell-based
Text: as §3, §4, §5, §6

MDA-MB-361 cells = assay: MNED curve-shift assay; format: cell-based
Text: as §3, §4, §5, §6

C[C@@H]1COCCN1c1cc(C2(S(C)(=N)=O)CC2)nc(-c2ccnc3[nH]ccc23)n1 (stereo partly drawn) [AZD6738, 4-{4-[(3R)-3-methylmorpholin-4-yl]-6-[1-(S-methylsulfonimidoyl)cyclopropyl]pyrimidin-2-yl}-1H-pyrrolo[2,3-b]pyridine]
tolerability (conclusion) [1]: well tolerated | tumor response (tumor volume) (NCI-N87 xenografts): not statistically different from the vehicle-treated group | Synergy score S (MDA-MB-453 cells [2]; combination with ADC αHER2-2): 9.1±2.1 | Synergy score S (MDA-MB-453 cells [2]; combination with ADC αHER2-6): 9.5±0.9 | Synergy score S (NCI-N87 cells; combination with ADC αHER2-2): 3.7±0.7 | Synergy score S (NCI-N87 cells; combination with ADC αHER2-6): 3.0±0.05 | Synergy score S (HCC-1954 cells [3]; HCC-1954, 6 d, S ± SD, cutoff ±1): 6.9±0.7 | Synergy score S (HCC-1954 cells [3]; cell line not given (screen on HCC-1954 or MDA-MB-468)): 7.6 | additional cancer cells killed versus additive (Loewe) prediction (HCC-1954 cells [3]; hotspot 160 to 630 nM AZD6738 and 0.16 to […] DUBA): up to 69% | Synergy score S (MDA-MB-468 cells [4]): 5.7±1.0 | MNED (maximum non-efficacious dose) (HCC-1954 cells [5]): 250 nM | MNED (maximum non-efficacious dose) (MDA-MB-468 cells [6]): 300 nM | MNED (maximum non-efficacious dose) (Calu-3 cells): 400 nM | MNED (maximum non-efficacious dose) (MDA-MB-453 cells [7]): 111 nM | MNED (maximum non-efficacious dose) (BT-474 cells): 1000 nM | MNED (maximum non-efficacious dose) (JIMT-1 cells): 80 nM | MNED (maximum non-efficacious dose) (SK-OV-3 cells): 150 nM | MNED (maximum non-efficacious dose) (SK-BR-3 cells): 150 nM | MNED (maximum non-efficacious dose) (MDA-MB-361 cells): 111 nM
